Results as given in PMC8924238, “Mapping the sequence specificity of heterotypic amyloid interactions enables the identification of aggregation modifiers” (Nature Communications, 2022).

Test system: HEK293 Tau^RD-P301S-CFP/YFP expressing biosensor cells
Experiment: FRET cellular transfection assay with protein constructs and tau seeds
Format: cell-based
Details: for rise of induced tau aggregation in transfection-positive cells: compared to non-expressing and non-transfected cells, high seeding concentrations; for susceptibility to tau seeding at low seed concentrations: concentration-dependent quantification; for number of inclusions formed per cell: higher concentrations of tau seeds, compared to the controls
Protocol: HEK293 Tau^RD-P301S-CFP/YFP expressing biosensor cells[109] were purchased from ATCC and cultured in DMEM medium, supplemented with 10% FBS at 37 °C, and a 5% CO2 atmosphere. Gene constructs (Supplementary Methods) were generated and onboarded to a pTwist CMV expression vector by coupling double-tagged (N-terminal HA and C-terminal FLAG recognition sites) genes of interest to an mKO2 fluorescence reporter, separated by an IRES site to enable independent co-expression (Twist Biosciences). Due to restrictions imposed by the construct synthesis, for proteins longer than 500 residues we designed shorter domain-constructs containing the homologous sequences (Supplementary Table 2). Biosensor cells were plated in poly-L-lysine coated 96-well plates (PerkinElmer) at a density of 20000 cells/well. DNA transfection (100 ng) and tau seeds transfection was performed 6 h and 48 h later, respectively, using Lipofectamine 3000 according to the manufacturer guidelines. For seed transfections specifically, a volume of 4.8 μL of the seed sample, mixed with 0.2 μL of Reagent 3000, was added to a mixture of 0.3 μL of Lipofectamine 3000 with 4.7 μL of Opti-MEM medium. Cells were fixed with 4% formaldehyde 24 h after seeding. Fixed cells were stained with DAPI (Thermofisher, D1306) following the manufacturer protocol. For immunofluorescence staining, primary antibody staining at 1:1000 dilution was performed in 1% BSA with an HA-tag (C29F4) Rabbit mAb (Cell Signalling, #3724), followed by secondary staining with an Alexa Fluor 647 goat anti-rabbit antibody (ThermoFisher, A-21245) at 1:1000 dilution in 1% BSA for 1 h. Three individual plate preparations were performed for each construct gradient as independent experiments (n = 3). High-content screening was performed at the VIB Screening Core/C-BIOS, using an Opera Phenix HCS (PerkinElmer) equipped with proper filter channels to track tau aggregation through FRET (Ex:405, Em:550), construct colocalization through HA staining (Ex:647, Em:667) and DAPI staining (Ex:405 Em:430). Image storage and segmentation analysis was performed using the Columbus Plus digital platform (PerkinElmer). Quantification of colocalization was performed using Coloc2 in ImageJ.

| Molecule | rise of induced tau aggregation in transfection-positive cells | susceptibility to tau seeding at low seed concentrations | number of inclusions formed per cell |
| --- | --- | --- | --- |
| DOCK3: dedicator of cytokinesis, transiently expressed construct | 30% |  |  |
| IDE: insulin degrading enzyme, transiently expressed construct with homology to PHF6 | 30% | vulnerable to tau seeding even at picomolar concentrations | doubling or higher effect |
| SNTG1: Synaptotagmin-1 (SNTG1) as worded, transiently expressed construct (protein, UniProt Q9NSN8 1-517, looked up) Gamma-1-syntrophin: MDFRTACEETKTGICLLQDGNQEPFKVRLHLAKDILMIQEQDVICVSGEPFYSGERTVTIRRQTVGGFGLSIKGGAEHNIPVVVSKISKEQRAELSGLLFIGDAILQINGINVRKCRHEEVVQVLRNAGEEVTLTVSFLKRAPAFLKLPLNEDCACAPSDQSSGTSSPLCDSGLHLNYHPNNTDTLSCSSWPTSPGLRWEKRWCDLRLIPLLHSRFSQYVPGTDLSRQNAFQVIAVDGVCTGIIQCLSAEDCVDWLQAIATNISNLTKHNIKKINRNFPVNQQIVYMGWCEAREQDPLQDRVYSPTFLALRGSCLYKFLAPPVTTWDWTRAEKTFSVYEIMCKILKDSDLLDRRKQCFTVQSESGEDLYFSVELESDLAQWERAFQTATFLEVERIQCKTYACVLESHLMGLTIDFSTGFICFDAATKAVLWRYKFSQLKGSSDDGKSKIKFLFQNPDTKQIEAKELEFSNLFAVLHCIHSFFAAKVACLDPLFLGNQATASTAASSATTSKAKYTT |  |  | doubling or higher effect |
| TRA2B: Transformer-2 homolog beta, transiently expressed construct (protein, UniProt P62995 2-288, looked up) Transformer-2 protein homolog …: SDSGEQNYGERESRSASRSGSAHGSGKSARHTPARSRSKEDSRRSRSKSRSRSESRSRSRRSSRRHYTRSRSRSRSHRRSRSRSYSRDYRRRHSHSHSPMSTRRRHVGNRANPDPNCCLGVFGLSLYTTERDLREVFSKYGPIADVSIVYDQQSRRSRGFAFVYFENVDDAKEAKERANGMELDGRRIRVDFSITKRPHTPTPGIYMGRPTYGSSRRRDYYDRGYDRGYDDRDYYSRSYRGGGGGGGGWRAAQDRDQIYRRRSPSPYYSRGGYRSRSRSRSYSPRRY | 30% | vulnerable to tau seeding even at picomolar concentrations | doubling or higher effect |
